Results reported in ChEMBL document CHEMBL1201862, “PubChem BioAssay data set” (2004).
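Method: 48-hour compound exposure of cells in 96-well plates, five concentrations, linear interpolation of endpoints. GI50 = concentration required for 50% inhibition of growth.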 Calls of active or inactive are those of the source. Cut-off read from the data, not from the text of the source: active = GI50 up to about 1.1 µM and inactive = higher.

Assays:
Assay in all cases: growth of human tumour cells (NCI), 48 h
DU-145 = system: DU-145
HL-60 = system: HL-60
HOP-62 = system: HOP-62
HOP-92 = system: HOP-92
IGROV-1 = system: IGROV-1
MDA-MB-231 = system: MDA-MB-231
MOLT-4 = system: MOLT-4
NCI-H23 = system: NCI-H23
OVCAR-5 = system: OVCAR-5
OVCAR-8 = system: OVCAR-8
SK-MEL-2 = system: SK-MEL-2
SK-MEL-5 = system: SK-MEL-5
SNB-19 = system: SNB-19
T47D = system: T47D
UACC-257 = system: UACC-257
UO-31 = system: UO-31
CCRF-CEM = system: CCRF-CEM
MDA-MB-435 = system: MDA-MB-435
NCI-H460 = system: NCI-H460
RXF 393 = system: RXF 393

Measured: GI50

CC(=O)C1C(=O)C(=O)N(c2cccc(C)c2C)C1=O (stereo unspecified)
inactive: DU-145 > 100 µM | HL-60 > 100 µM | HOP-62 > 100 µM | HOP-92 > 100 µM | IGROV-1 > 100 µM | MDA-MB-231 > 100 µM | MOLT-4 22.8 µM | NCI-H23 > 100 µM | OVCAR-5 > 100 µM | OVCAR-8 > 100 µM | SK-MEL-2 > 100 µM | SK-MEL-5 > 100 µM | SNB-19 > 100 µM | T47D > 100 µM | UACC-257 > 100 µM | UO-31 > 100 µM

CCCCCCCCCCCCCCCC(=O)OCC1CCCN2CCCCC12 (stereo unspecified)
inactive: CCRF-CEM > 100 µM | DU-145 > 100 µM | HL-60 > 100 µM | HOP-62 > 100 µM | HOP-92 > 100 µM | MDA-MB-231 > 100 µM | MDA-MB-435 > 100 µM | MOLT-4 > 100 µM | NCI-H23 > 100 µM | NCI-H460 > 100 µM | OVCAR-5 > 100 µM | OVCAR-8 > 100 µM | RXF 393 > 100 µM | SK-MEL-2 > 100 µM | SK-MEL-5 > 100 µM | SNB-19 > 100 µM | UACC-257 > 100 µM | UO-31 > 100 µM

Cc1ccc(-n2nncc2[Si](C)(C)C)s1
inactive: CCRF-CEM 22.6 µM | DU-145 > 100 µM | HOP-92 > 100 µM | MDA-MB-231 > 100 µM | MDA-MB-435 > 100 µM | NCI-H23 > 100 µM | NCI-H460 > 100 µM | OVCAR-5 > 100 µM | OVCAR-8 > 100 µM | SK-MEL-2 > 100 µM | SK-MEL-5 > 100 µM | SNB-19 > 100 µM | T47D > 100 µM | UACC-257 > 100 µM | UO-31 > 100 µM

COc1cccc(Nc2nc(C)c([N+](=O)[O-])c(Nc3cccc(OC)c3)n2)c1
inactive: DU-145 9.79 µM | HL-60 11.2 µM | HOP-62 12.1 µM | HOP-92 6.08 µM | IGROV-1 14.6 µM | MDA-MB-231 49.7 µM | MOLT-4 4.37 µM | NCI-H23 16.2 µM | NCI-H460 3.95 µM | OVCAR-5 > 100 µM | OVCAR-8 5.74 µM | RXF 393 4.86 µM | SK-MEL-2 15.9 µM | SK-MEL-5 11.4 µM | SNB-19 89.1 µM | T47D 2.05 µM | UACC-257 9.57 µM | UO-31 9.27 µM

O=S(=O)(c1ccccc1)c1ccc(/N=N/O)nc1
inactive: CCRF-CEM 59.4 µM | DU-145 > 100 µM | HL-60 > 10 µM | HOP-62 > 100 µM | IGROV-1 > 100 µM | MDA-MB-231 > 100 µM | MOLT-4 22.4 µM | NCI-H23 > 100 µM | NCI-H460 > 100 µM | OVCAR-5 > 100 µM | OVCAR-8 > 100 µM | SK-MEL-2 > 100 µM | SK-MEL-5 > 10 µM | SNB-19 > 100 µM | T47D > 100 µM | UACC-257 > 100 µM | UO-31 > 100 µM

CCCCc1ccc(NC(=N)N)cc1
inactive: CCRF-CEM 16.9 µM | DU-145 41.4 µM | HL-60 34.1 µM | HOP-92 28.7 µM | IGROV-1 21.7 µM | MDA-MB-231 28.9 µM | MDA-MB-435 40.1 µM | NCI-H23 40.2 µM | NCI-H460 20.2 µM | OVCAR-5 50.6 µM | OVCAR-8 38.4 µM | SK-MEL-2 47.6 µM | SK-MEL-5 12.9 µM | SNB-19 40.6 µM | T47D 31.6 µM | UACC-257 33.7 µM | UO-31 33.6 µM

COc1cc(COC(=O)N(C)[C@@H](Cc2ccccc2)C(=O)O)c([N+](=O)[O-])cc1OC
inactive: CCRF-CEM > 100 µM | DU-145 > 100 µM | HL-60 > 100 µM | HOP-62 > 100 µM | HOP-92 > 100 µM | IGROV-1 > 100 µM | MDA-MB-435 > 100 µM | MOLT-4 > 100 µM | NCI-H23 > 100 µM | NCI-H460 > 100 µM | OVCAR-5 > 100 µM | OVCAR-8 > 100 µM | SK-MEL-5 > 100 µM | SNB-19 > 100 µM | T47D > 100 µM | UACC-257 > 100 µM | UO-31 > 100 µM

COc1ccc(OC2OC(CO)C(O)C(O)C2O)cc1 (stereo unspecified)
inactive: CCRF-CEM > 100 µM | DU-145 > 100 µM | HL-60 > 100 µM | HOP-62 > 100 µM | IGROV-1 > 100 µM | MDA-MB-231 > 100 µM | MDA-MB-435 > 100 µM | MOLT-4 > 100 µM | NCI-H23 > 100 µM | NCI-H460 > 100 µM | OVCAR-5 > 100 µM | OVCAR-8 > 100 µM | SK-MEL-2 > 100 µM | SK-MEL-5 > 100 µM | SNB-19 > 100 µM | T47D > 100 µM | UACC-257 > 100 µM | UO-31 > 100 µM

CCC(CCCN)Nc1cc(OC)cc2c(C)ccnc12 (stereo unspecified)
inactive: CCRF-CEM 18.4 µM | DU-145 17.5 µM | HL-60 12.4 µM | HOP-62 15.1 µM | HOP-92 14 µM | IGROV-1 16.8 µM | MDA-MB-231 13.3 µM | MDA-MB-435 14.8 µM | MOLT-4 15.8 µM | NCI-H460 17.7 µM | OVCAR-5 17.7 µM | OVCAR-8 21.1 µM | RXF 393 13.8 µM | SK-MEL-2 20.8 µM | SK-MEL-5 17.8 µM | SNB-19 11.3 µM | UACC-257 17.9 µM | UO-31 12.9 µM

Cc1c(C(=O)O)c2cc3ccccc3cc2c(=O)n1C
inactive: HL-60 > 10 µM | HOP-92 > 10 µM | IGROV-1 > 10 µM | MDA-MB-231 > 10 µM | MDA-MB-435 > 10 µM | NCI-H23 > 10 µM | NCI-H460 > 10 µM | OVCAR-5 > 10 µM | OVCAR-8 > 10 µM | RXF 393 > 10 µM | SK-MEL-2 > 10 µM | SNB-19 > 10 µM | T47D > 10 µM | UACC-257 > 10 µM | UO-31 > 10 µM

[N-]=[N+]=CC(=O)OC1CCc2ccccc21 (stereo unspecified)
inactive: CCRF-CEM > 10 µM | DU-145 12.8 µM | HL-60 42.3 µM | HOP-62 55.2 µM | HOP-92 44.6 µM | IGROV-1 > 100 µM | MDA-MB-231 44.1 µM | MDA-MB-435 > 100 µM | NCI-H23 82.8 µM | NCI-H460 47.8 µM | OVCAR-5 46.5 µM | RXF 393 60.3 µM | SK-MEL-2 > 100 µM | SK-MEL-5 85.1 µM | SNB-19 > 100 µM | UACC-257 > 100 µM | UO-31 13.7 µM

COc1cccc(/C=N/n2c(C)n[nH]c2=O)c1
inactive: CCRF-CEM > 100 µM | HOP-62 80.7 µM | MDA-MB-231 > 100 µM | MDA-MB-435 > 100 µM | MOLT-4 > 100 µM | NCI-H23 > 100 µM | NCI-H460 > 100 µM | OVCAR-5 > 100 µM | OVCAR-8 > 100 µM | RXF 393 18.8 µM | SK-MEL-2 > 100 µM | SNB-19 > 100 µM | T47D > 100 µM | UACC-257 > 100 µM | UO-31 > 100 µM
